In one assay the target is T1, AAK1 (full length human) (Homo sapiens, UniProt Q2M2I8).
T1 construct: HA; expressed in transfected cells; host or cells: HEK293F
The experiment in a line: HEK281 Cell-Based Assay (HEK293F cells transfected with AAK1 and AP2M1; phospho-mu2 Western blot). The conditions noted are these: 3 h. How it is done:
HEK293F cells were cultured in media containing DMEM (Gibco, cat. #11965), 10% FBS (SAFC Biosciences, cat. #12103C), 1× GPS (glutamine, penicillin and streptomycin). On day one, cells were plated on a 10 cm dish so that they are ˜80% confluent at time of transfection. Roughly 12 million cells were in a 10 cm dish at time of transfection. On day two, each dish was transfected with 48 ug DNA and 144 μl Lipofectamine 2000 (Invitrogen, cat. #11668-019). The DNA was comprised of a mixture (per 10 cm dish) containing 3 ug AAK1/HA/pIRES (full length human, NCBI accession no. NP_055726.2), 45 μg Flag/AP2MI/pcDNA (full length human), and 1.5 ml OPTI-MEM. The Lipofectamine 2000 is made up of a mixture (per 10 cm dish) containing 144 μl Lipofectamine 2000 and 1.5 ml OPTI-MEM. Each mixture was transferred to individual 15 ml tubes and incubated at RT for 5 minutes, and then the two mixes were combined and incubated at RT for 20 minutes. Growth media was then aspirated from each 10 cm plate and replaced with 10 ml of DMEM+10% FBS (no GPS). Finally, 3 ml DNA/Lipofectamine mix was added to each 10 cm dish and mix gently followed by incubate of plate overnight at 37° C. and 5% CO2.
On day three, compounds were diluted in 100% DMSO at 1000× final concentration, followed by 3-fold serial dilutions for a total of 5 concentrations tested. Four compounds were tested per 10 cm dish. One ul of each compound dilution was then pipetted into a deep-well, 96-well plate, followed by addition of 500 μl DMEM+0.5% FBS into each well for a 2× final concentration of each compound. Cells were resuspended in a 10 cm dish by simple pipetting (HEK293 cells come off the plate that easy at this point) and then transferred to a 50 ml conical tube and pelleted by centrifugation at 1000 rpm for 5 min. Cell pellets were then resuspended in 2.75 ml DMEM+0.5% FBS per 10 cm dish and 100 μl of cell suspension transferred into each well of 96-well TC plate. Finally, 100 μl of 2× compound diluted in DMEM+0.5% FBS was then added into wells containing cell suspension for a 1× final concentration. Plates were then incubated at 37° C. and 5% CO2 for 3 hours followed by transferring of cell suspensions from each well into 12-tube PCR strips. The PCR strips were spun in a tip rack at 1000 rpm for 5 minutes to pellet cells and media was then removed by pipetting without disturbing the cell pellet.
To prepare for Western Blot analysis, cell pellets were resuspend in 40 ul 1× LDS-PAGE sample buffer (Invitrogen, cat. #NP0008)+2× Halt phophatase and protease inhibitor cocktail (Thermo Scientific, cat. #1861284), followed by sonicating each with microtip sonicator set at 5 for 8-10 seconds. Five ul of 10× NuPage Sample Reducing Agent (with […]) was to each sample followed by heat denaturing at 70C for 10 min on PCR machine. A total of 10 μl per sample was loaded into each lane of a 4-20% Tris-Glycine Criterion 26-well gel (Biorad, cat. #345-0034) for the phospho-mu2 blot and 10 μl per lane in a 4-12% Bis-Tris (+MES buffer) NuPAGE 26-well gel (Invitrogen, cat. #WG1403BX10) for the mu2 blot. For controls, 2 ng of phospho-mu2 or 20 ng mu2/Flag proteins were loaded in the last well of each gel. After SDS-PAGE, samples on each gel were transferred to PVDF membrane using an iBlot and membranes were blocked for one hour in TBST+5% milk, followed by wash 3× for 5-10 min with TBST. Criterion gels were probed with rabbit anti-phospho-mu2 (1:5000; a rabbit polyclonal antibody produced by New England Peptide and affinity purified at Lexicon) in TBST+5% BSA, whereas, NuPAGE gels were probed with mouse anti-Flag (1:500; Sigma, cat. #F1804) in TBST+5% milk, and these primary antibodies were incubated overnight at 4° C. on a rocker. […]
For orientation: Immunoblotting shows a protein as a band on a membrane.

The target of the next assay is T2, GST-Xa-hAAK1 (Homo sapiens, UniProt Q2M2I8).
T2 construct: made in house
T2 sequence (Q2M2I8 whole entry): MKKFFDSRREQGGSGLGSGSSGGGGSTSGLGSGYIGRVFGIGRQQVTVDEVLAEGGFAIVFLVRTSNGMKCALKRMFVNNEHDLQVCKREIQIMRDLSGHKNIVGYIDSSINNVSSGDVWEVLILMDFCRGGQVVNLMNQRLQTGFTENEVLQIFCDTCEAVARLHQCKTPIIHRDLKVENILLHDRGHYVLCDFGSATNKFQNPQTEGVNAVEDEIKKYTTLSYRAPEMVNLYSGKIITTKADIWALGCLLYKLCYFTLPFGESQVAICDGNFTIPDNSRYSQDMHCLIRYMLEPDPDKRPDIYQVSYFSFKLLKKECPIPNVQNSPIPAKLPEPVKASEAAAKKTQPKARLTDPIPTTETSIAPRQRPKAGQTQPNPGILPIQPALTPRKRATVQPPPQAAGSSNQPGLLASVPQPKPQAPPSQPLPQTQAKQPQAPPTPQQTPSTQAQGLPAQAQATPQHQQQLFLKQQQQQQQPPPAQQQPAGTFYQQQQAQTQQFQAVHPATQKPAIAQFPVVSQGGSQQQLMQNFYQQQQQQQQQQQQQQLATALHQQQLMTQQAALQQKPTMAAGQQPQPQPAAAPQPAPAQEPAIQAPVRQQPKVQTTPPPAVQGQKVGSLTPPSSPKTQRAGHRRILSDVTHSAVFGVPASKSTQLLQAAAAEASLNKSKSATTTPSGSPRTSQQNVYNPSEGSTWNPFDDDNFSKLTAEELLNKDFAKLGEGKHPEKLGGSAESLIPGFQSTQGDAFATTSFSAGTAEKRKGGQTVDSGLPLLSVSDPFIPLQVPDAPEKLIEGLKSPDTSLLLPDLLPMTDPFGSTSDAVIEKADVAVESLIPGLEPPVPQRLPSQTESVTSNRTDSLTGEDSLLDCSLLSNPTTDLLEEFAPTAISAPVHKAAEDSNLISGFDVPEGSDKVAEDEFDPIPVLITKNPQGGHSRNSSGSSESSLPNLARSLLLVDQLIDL
Description: AAK1 Kinase Assay (Caliper LabChip, fluoresceinated peptide substrate). The format is biochemical. The conditions noted are these: ATP 22 μM. How it is done:
The assays were performed in U-bottom 384-well plates. The final assay volume was 30 μl prepared from 15 μl additions of enzyme and substrates (fluoresceinated peptide (5-FAM)-Aha-[…]-NH2 and ATP) and test compounds in assay buffer (10 mM Tris-HCL pH 7.4, 10 mM MgCl2, 0.01% Tween-20 and 1.0 mM DTT). The reactions were initiated by the combination of bacterially expressed, GST-Xa-hAAK1 with substrates and test compounds. The reactions were incubated at room temperature for 3 hours and terminated by adding 60 μl of 35 mM EDTA buffer to each sample. The reactions were analyzed on the Caliper LabChip 3000 (Caliper, Hopkinton, Mass.) by electrophoretic separation of the fluorescent substrate and phosphorylated product. […] The final concentration of reagents in the assays are ATP, 22 μM; (5-FAM)-Aha-[…]-NH2, 1.5 μM; GST-Xa-hAAK1, 3.5 nM; and DMSO, 1.6%. Dose response curves were generated to determine the concentration required inhibiting 50% of kinase activity (IC50). Compounds were dissolved at 10 mM in dimethylsulfoxide (DMSO) and evaluated at eleven concentrations. IC50 values were derived by non-linear regression analysis.

T1 sequence (Q2M2I8 whole entry): as above

As to `CC(C)C[C@H](N)COc1ccc2c(c1)OC(C1CC1)c1cnccc1-2` (mixture of isomers) [Example 8, (2S)-1-(5-cyclopropyl-5H-chromeno[3,4-c]-pyridin-8-yloxy)-4-methylpentan-2-amine], the half-maximal inhibitory concentration (IC50) against AAK1 (full length human) (listed as IC50 ranges) and on GST-Xa-hAAK1 (listed as IC50 ranges) was 10 to 100 nM in each case.

As for `CCC1Oc2cc(OC[C@@H](N)CC(C)C)ccc2-c2ccncc21` (mixture of isomers) [Example 10, (2S)-1-(5-ethyl-5H-chromeno[3,4-c]pyridin-8-yloxy)-4-methylpentan-2-amine], the half-maximal inhibitory concentration (IC50) at AAK1 (full length human) (listed as IC50 ranges) and on GST-Xa-hAAK1 (listed as IC50 ranges) was 10 to 100 nM in each case.

As to `CC(C)C[C@H](N)COc1cc2c(cc1Br)-c1ccncc1C(C)O2` (mixture of isomers) [Example 21, (2S)-1-(9-bromo-5-methyl-5H-chromeno[3,4-c]pyridin-8-yloxy)-4-methylpentan-2-amine], the IC50 – broadly, the midpoint of a concentration-inhibition curve – at AAK1 (full length human) (listed as IC50 ranges) is < 1 nM; at GST-Xa-hAAK1 (listed as IC50 ranges), 1 to 10 nM.

Take `CC(C)C[C@H](N)COc1cc2c(cc1C#N)-c1ccncc1C(C)O2` (mixture of isomers) [Example 22, 8-((S)-2-amino-4-methylpentyloxy)-5-methyl-5H-chromeno[3,4-c]pyridine-9-carbonitrile]: the IC50 at AAK1 (full length human) (listed as IC50 ranges) is < 1 nM; on GST-Xa-hAAK1 (listed as IC50 ranges), 1 to 10 nM.

`CC1Oc2cc(OC[C@@H](N)CC3CCCC3)ccc2-c2ccncc21` (mixture of isomers) [Example 24, (2S)-1-cyclopentyl-3-(5-methyl-5H-chromeno[3,4-c]pyridin-8-yloxy)propan-2-amine]: the IC50 against AAK1 (full length human) (listed as IC50 ranges) and on GST-Xa-hAAK1 (listed as IC50 ranges) was 10 to 100 nM throughout.

Consider `CC(C)C[C@H](N)COc1cc2c(cc1Cl)-c1ccncc1C(C(F)(F)F)O2` (mixture of isomers) [Example 27, (2S)-1-((9-chloro-5-(trifluoromethyl)-5H-chromeno[3,4-c]pyridin-8-yl)oxy)-4-methylpentan-2-amine], for which the IC50 at AAK1 (full length human) (listed as IC50 ranges) and at GST-Xa-hAAK1 (listed as IC50 ranges) was 1 to 10 nM each time.

As for `CC(C)C[C@H](N)COc1cc2c(cc1Br)-c1ccncc1C(C(F)(F)F)O2` (mixture of isomers) [Example 28, (2S)-1-((9-bromo-5-(trifluoromethyl)-5H-chromeno[3,4-c]pyridin-8-yl)oxy)-4-methylpentan-2-amine], the IC50 against AAK1 (full length human) (listed as IC50 ranges) and on GST-Xa-hAAK1 (listed as IC50 ranges) was 1 to 10 nM each time.

Turning to `NC(CCC(F)(F)F)COc1ccc2c(c1)OCc1cnccc1-2` (racemic) [Example 17, 1-(5H-chromeno[3,4-c]pyridin-8-yloxy)-5,5,5-trifluoropentan-2-amine], the IC50 against AAK1 (full length human) (listed as IC50 ranges) and at GST-Xa-hAAK1 (listed as IC50 ranges) was 10 to 100 nM each time.

On to `CC(=O)Nc1cc2c(cn1)COc1cc(OCC(N)CCC(F)(F)F)ccc1-2` (racemic) [Example 36, N-(8-((2-amino-5,5,5-trifluoropentyl)oxy)-5H-chromeno[3,4-c]pyridin-2-yl)acetamide], for which the results for the IC50 at AAK1 (full length human) (listed as IC50 ranges) and on GST-Xa-hAAK1 (listed as IC50 ranges) were 1 to 10 nM and 10 to 100 nM, respectively.

In the case of `CC(=O)Nc1cc2c(cn1)COc1cc(OCC(C)(N)CC(C)C)ccc1-2` (racemic) [Example 44, N-(8-(2-amino-2,4-dimethylpentyloxy)-5H-chromeno[3,4-c]pyridin-2-yl)acetamide], the IC50 fell in the range of 10 to 100 nM on AAK1 (full length human) (listed as IC50 ranges) and 1 to 10 nM at GST-Xa-hAAK1 (listed as IC50 ranges).

For `CC(C)C[C@H](N)COc1ccc2c(c1)OC(C)c1cnccc1-2` (single isomer, unassigned) [Example 6a], the IC50 on AAK1 (full length human) (numeric values) was 25 nM; at GST-Xa-hAAK1 (numeric values), 27 nM.

In the case of `CC(C)C[C@H](N)COc1ccc2c(c1)OC(C)c1cnccc1-2` (single isomer, unassigned) [Example 6b], the IC50 against AAK1 (full length human) (numeric values) was determined as 4.3 nM; on GST-Xa-hAAK1 (numeric values), 9.1 nM.

Consider `CC(C)C[C@@H](N)COc1ccc2c(c1)OC(C)c1cnccc1-2` (single isomer, unassigned) [Example 7a], for which the results for the half-maximal inhibitory concentration (IC50) against AAK1 (full length human) (numeric values) and on GST-Xa-hAAK1 (numeric values) were > 300 nM and 81 nM, respectively.

For `CC(C)C[C@H](N)COc1ccc2c(c1)OC(C1CC1)c1cnccc1-2` (single isomer, unassigned) [Example 8b], the IC50 at AAK1 (full length human) (listed as IC50 ranges) and at GST-Xa-hAAK1 (listed as IC50 ranges) was 10 to 100 nM throughout.

Take `CC(C)C[C@@H](N)COc1ccc2c(c1)OC(C1CC1)c1cnccc1-2` (single isomer, unassigned) [Example 9a]: the figures for the IC50 on AAK1 (full length human) (numeric values) and on GST-Xa-hAAK1 (listed as IC50 ranges) were > 300 nM and 100 to 1000 nM, respectively.

With `CC(C)C[C@@H](N)COc1ccc2c(c1)OC(C1CC1)c1cnccc1-2` (single isomer, unassigned) [Example 9b], at AAK1 (full length human) (numeric values), the IC50 is > 300 nM.

Regarding `CCC1Oc2cc(OC[C@@H](N)CC(C)C)ccc2-c2ccncc21` (single isomer, unassigned) [Example 10a], the concentration for half-maximal inhibition (IC50) against AAK1 (full length human) (listed as IC50 ranges) and at GST-Xa-hAAK1 (listed as IC50 ranges) was 10 to 100 nM throughout.

Consider `CC(C)C[C@H](N)COc1ccc2c(c1)OCc1cnccc1-2` [Example 5, (S)-1-(5H-chromeno[3,4-c]pyridin-8-yloxy)-4-methylpentan-2-amine], for which the figures for the 50% inhibitory concentration (IC50) on AAK1 (full length human) (numeric values) and on GST-Xa-hAAK1 (numeric values) were 8.4 nM and 3.3 nM, respectively.

`CC(C)C[C@H](N)COc1ccc2c(c1)oc(=O)c1cnccc12` [Example 11, (S)-8-(2-amino-4-methylpentyloxy)-5H-chromeno[3,4-c]pyridin-5-one]: the IC50 against AAK1 (full length human) (numeric values) stood at 38 nM; at GST-Xa-hAAK1 (numeric values), 22 nM.

Regarding `CC(=O)Nc1nccc2c1COc1cc(OC[C@@H](N)CC(C)C)ccc1-2` [Example 12, (S)-N-(8-(2-amino-4-methylpentyloxy)-5H-chromeno[3,4-c]pyridin-4-yl)acetamide], the IC50 against AAK1 (full length human) (listed as IC50 ranges) and on GST-Xa-hAAK1 (listed as IC50 ranges) was 10 to 100 nM in each case.

With `CC(C)C[C@H](N)COc1ccc2c(c1)OCc1c-2ccnc1N` [Example 13, (S)-8-((2-amino-4-methylpentyl)oxy)-5H-chromeno[3,4-c]pyridin-4-amine], the IC50 at AAK1 (full length human) (listed as IC50 ranges) and on GST-Xa-hAAK1 (listed as IC50 ranges) was 1 to 10 nM throughout.

As for `CC(C)C[C@H](N)COc1cc2c(cc1Br)-c1ccncc1CO2` [Example 14, (S)-1-(9-bromo-5H-chromeno[3,4-c]pyridin-8-yloxy)-4-methylpentan-2-amine], the IC50 against AAK1 (full length human) (listed as IC50 ranges) and at GST-Xa-hAAK1 (listed as IC50 ranges) was 1 to 10 nM throughout.

As to `CC(C)C[C@H](N)COc1ccc2c(c1)OC(C)c1c-2ccnc1N` (stereo partly drawn) [Example 15, 8-(((S)-2-amino-4-methylpentyl)oxy)-5-methyl-5H-chromeno[3,4-c]pyridin-4-amine], the IC50 on AAK1 (full length human) (listed as IC50 ranges) and at GST-Xa-hAAK1 (listed as IC50 ranges) was 1 to 10 nM each time.

Take `CC(C)C[C@H](N)COc1ccc2c(c1)OCc1cncc(F)c1-2` [Example 16, (S)-1-((1-fluoro-5H-chromeno[3,4-c]pyridin-8-yl)oxy)-4-methylpentan-2-amine]: the IC50 at AAK1 (full length human) (listed as IC50 ranges) and on GST-Xa-hAAK1 (listed as IC50 ranges) was 1 to 10 nM throughout.

Source of the values: US8703953B2, “Aryl ether-base kinase inhibitors” (Bristol-Myers Squibb Company, priority 2012, dated 2014).
